# From PMC12435690, “KYLO-0603, a novel liver-targeting, thyroid hormone receptor-β agonist for the inhibition of MASH progression” (PLOS One, 2025)
# Key:
# [1] = Metabolic stability in plasma (beagle dogs); conditions: dog
# Experimental: (§1) We evaluated the metabolic stability of Kylo-0603 in the plasma of CD-1 mice, Sprague–Dawley (SD) rats, beagle dogs, cynomolgus monkeys, and humans. The plasma from the five species was mixed with Kylo-0603 (2 μM) and incubated at 37°C in a thermostatic water tank. The plasma concentrations of Kylo-0603 were monitored via LC-MS/MS at 0, 10, 30, 60, and 120 min.
# [2] = Metabolic stability in plasma (cynomolgus monkeys); conditions: cynomolgus monkey
# Experimental: as §1
# [3] = system: MASH mouse models (F2 ~ 3); experiment: SHG/TPEF microscopy of liver fibrosis and steatosis in MASH mouse models; format: in vivo, C57BL/6J mice; conditions: for SHG fibrosis percentage / percentage of steatosis: 8 weeks; for SHG fibrosis percentage: control 4.36%; for percentage of steatosis: control 21.66%
# Experimental: Scanning was conducted on a Genesis® machine, a stain-free TPE/SHG microscopic imaging device manufactured in-house by HistoIndex®, Singapore. The region of interest (ROI) is systematically partitioned into uniformly sized, termed “blocks,” each measuring of 200 μm × 200 μm. These blocks were sequentially imaged individually and in sequence in raster scan mode utilizing a 20x objective lens. Each block has a resolution of 512 × 512 pixels, or 0.4 μm per pixel. Software developed by HistoIndex and Chipmap for image analysis identifies the different lobular regions, the central vein, the confluent region, and the perisinus region. Fibrosis and steatosis in these regions were subsequently measured and quantified in the SHG and TPE images.
# As a fundamental component of clinical prognosis in MASH, a precise evaluation of hepatic fibrosis is very crucial. Artificial intelligence-assisted second harmonic generation/two-photon excitation fluorescence (SHG/TPEF) microscopy technique has been introduced because the existing scoring systems are insufficient for capturing the process of hepatic fibrosis regression. This offers a consistent and very precise way to evaluate the pathological characteristics of MASH, especially the serial measurement of collagen fibers and hepatic fibrosis. In this study, we employed second harmonic generation/two-photon excited fluorescence (SHG/TPEF) microscopy integrated with digital image analysis to evaluate liver tissue sections across a larger tissue area from MASH mouse models (F2–F3). This approach enabled systematic analysis of the effects of Kylo-0603 on arresting the progression of hepatic steatosis and fibrosis of liver tissue.
# Through quantitative analysis of SHG/TPEF imaging datasets, we conducted a detailed assessment of the specific impacts of varying Kylo-0603 dosages (0.1 mg/kg, 0.3 mg/kg, 1 mg/kg, 3 mg/kg, and 10 mg/kg) on fibrogenesis and steatosis in F2–F3 MASH mouse models. The key findings are systematically summarized as follows: […]
# [4] = in vitro; conditions: cynomolgus monkey, plasma
# Experimental: as §1
# [5] = in vitro; conditions: human, plasma
# Experimental: as §1
# [6] = 182-day long-term dosing toxicity study in Sprague-Dawley rats; format: in vivo
# Experimental: To evaluate the preclinical safety profile of Kylo-0603, a novel liver-targeted thyroid hormone receptor β (TRβ) agonist with therapeutic potential, systematic toxicological assessments were conducted in both non-human primates (cynomolgus monkeys) and rodents (Sprague-Dawley rats). […] The no-observed-adverse-effect level (NOAEL) was determined to be 1.5 mg/kg/day. Collectively, these independent toxicological investigations substantiate Kylo-0603’s favorable safety, providing rigorous preclinical support for clinical advancement.
# [7] = in vitro; conditions: Sprague-Dawley, rat, plasma
# Experimental: as §1
# [8] = Metabolic stability in plasma (SD rats); conditions: SD rat plasma
# Experimental: as §1
# [9] = system: HFD-induced obese mice; experiment: HFD-induced obese mice, oral once daily treatment; conditions: for fat content reduction / increase in the percentage of lean mass / reduction in Chol level / reduction in LDL-C level: vs HFD control; for Ballooning score / Fibrosis Score / Lobular inflammation score / NAFLD activity score / Steatosis score: DIO mice, HFD
# Experimental: Experiments were performed on 112 (n = 16/group) male C57BL/6J mice (5 weeks). After 3 days of acclimatization, the animals were randomly divided according to body weight into a control group (Chow Diet) and a HFD group (HFD, 60% calories as fat, Cat# D12492, Research Diet, Jiangsu Xietong Pharmaceutical Bioengineering Co., Ltd.). The mice were fed with the corresponding diets for 16 weeks (with bedding shavings and a high-fat diet changed twice a week), during which the bedding shavings and high-fat diet (HFD) were refreshed twice weekly (see S1 Fig). Body weights were recorded on a weekly basis throughout this period. […] A separate cohort of mice, fed a standard chow diet, served as normal controls and received daily oral gavages of the vehicle. At the end of the experiment, the mice were fasted for 6 hours and then sacrificed. The animals were euthanized by CO2 inhalation and blood were collected along with liver and heart tissues. Collected blood samples were centrifuged to obtain the serum for the detection of cholesterol, triglyceride, and low-density lipoprotein cholesterol. The heart and liver tissues were weighed and photographed. The livers and hearts of the mice were rapidly removed and washed with cold saline. Half of the left lobe of liver was fixed in 4% neutral paraformaldehyde, and the remaining part of livers and hearts were snap-frozen and stored at −80°C for further analysis. The concentrations of serum lipids and liver enzymes from orbital or cardiac blood were determined by measuring triglycerides (TG), cholesterol (Chol), Low-density lipoprotein cholesterol (LDL-C), alanine transaminase (ALT), and aspartate transaminase (AST) levels using a Hitachi 7020 automated hematology laboratory and a Wako kit.
# The dewaxed tissue slides were incubated in the alcohol-free hematoxylin staining solution for a period of 3–5 minutes, followed by thorough rinsing with running tap water. The slides were then subjected to differentiated and bluing for several seconds, after which they underwent sequential dehydration through a series of ethanol solutions with increasing concentrations (50%, 70%, 85%, and 95%). They were then subjected to eosin staining for a period of 5–10 minutes. The slides were then dehydrated sequentially with 95%, 100%, and 100% ethanol before being cleared with xylene. Finally, the slides were sealed with neutral gum, dried, and imaged.
# The frozen sections were immersed in 60% isopropyl alcohol for 3–5 minutes, followed by immersion in Oil Red staining solution for 3–5 minutes. The samples were then washed with pure water. Following a wash with pure water, the nuclei were restained with hematoxylin, after which the sections were sealed with 50% glycerol, dried and photographed for imaging.
# The dewaxed slides were rinsed in running water, stained with Sirius Red for 8–10 minutes, washed slightly in anhydrous ethanol, dehydrated, made transparent by gradient ethanol and xylene, and finally sealed with neutral gum, dried and photographed for imaging.
# [10] = in vitro; conditions: beagle, dog, plasma
# Experimental: as §1
# [11] = in vitro; conditions: CD-1, mouse, plasma
# Experimental: as §1
# [12] = Metabolic stability in plasma (CD-1 mice)
# Experimental: as §1
smiles,measurement,setting,value
CC(=O)N[C@H]1[C@H](OCCCCCCNC(=O)CCOCC(COCCC(=O)NCCCCCCO[C@@H]2O[C@H](CO)[C@H](O)[C@H](O)[C@H]2NC(C)=O)(COCCC(=O)NCCCCCCO[C@@H]2O[C@H](CO)[C@H](O)[C@H](O)[C@H]2NC(C)=O)NC(=O)CCCCCNC(=O)COc2cc(C)c(Cc3ccc(O)c(C(C)C)c3)c(C)c2)O[C@H](CO)[C@H](O)[C@@H]1O [Kylo-0603],plasma stability,[1],unstable
same,plasma stability,[2],stable
same,SHG fibrosis percentage,[3]; 0.1 mg/kg,2.92%
same,percentage of steatosis,[3]; 0.1 mg/kg,5.07%
same,SHG fibrosis percentage,[3]; 0.3 mg/kg,2.12%
same,percentage of steatosis,[3]; 0.3 mg/kg,4.39%
same,SHG fibrosis percentage,[3]; 1 mg/kg,2.16%
same,percentage of steatosis,[3]; 1 mg/kg,4.19%
same,SHG fibrosis percentage,[3]; 3 mg/kg,2.03%
same,percentage of steatosis,[3]; 3 mg/kg,2.22%
same,reduction of steatosis vs control group,[3]; 10 mg/kg,90%
same,SHG fibrosis percentage,[3]; 10 mg/kg,1.86%
same,half-life at 2 μM,[4],> 6.21 h
same,half-life at 2 μM,[5],> 6.21 h
same,pathological changes,"[6]; 182 days, maximum dose 1.5 mg/kg/day, 8-week recovery",only mild Kylo-0603-related pathological changes
same,perturbations of the hypothalamic-pituitary-thyroid (HPT) axis,[6]; Sprague-Dawley rats,no perturbations
same,NOAEL at 182 day,"[6]; Sprague-Dawley, rat, in vivo, 1.5 mg/kg/day, 182-day study, SD rats, read-out: no-observed-adverse-effect level (NOAEL)",1.5 mg/kg/day
same,half-life at 2 μM,[7],> 6.21 h
same,plasma stability,[8],stable
same,body weight reduction vs HFD control group,"[9]; 0.1 mg/kg PO once daily, 10 weeks",0.8%
same,fat content reduction,"[9]; 0.1 mg/kg, 8 weeks",8.96%
same,increase in the percentage of lean mass,"[9]; 0.1 mg/kg, 8 weeks",5.32%
same,reduction in Chol level,"[9]; 0.1 mg/kg, 10 weeks",30.6%
same,reduction in LDL-C level,"[9]; 0.1 mg/kg, 10 weeks",58.0%
same,body weight reduction vs HFD control group,"[9]; 0.3 mg/kg PO once daily, 10 weeks",4.8%
same,fat content reduction,"[9]; 0.3 mg/kg, 8 weeks",9.16%
same,increase in the percentage of lean mass,"[9]; 0.3 mg/kg, 8 weeks",10.95%
same,reduction in Chol level,"[9]; 0.3 mg/kg, 10 weeks",35.9%
same,reduction in LDL-C level,"[9]; 0.3 mg/kg, 10 weeks",72.7%
same,body weight reduction vs HFD control group,"[9]; 1 mg/kg PO once daily, 10 weeks",3.8%
same,fat content reduction,"[9]; 1 mg/kg, 8 weeks",14.07%
same,increase in the percentage of lean mass,"[9]; 1 mg/kg, 8 weeks",13.52%
same,reduction in Chol level,"[9]; 1 mg/kg, 10 weeks",47.9%
same,reduction in LDL-C level,"[9]; 1 mg/kg, 10 weeks",81.8%
same,average reduction of triglyceride content in liver homogenates,[9]; 3 mg/kg,up to 36.4%
same,body weight reduction vs HFD control group,"[9]; 3 mg/kg PO once daily, 10 weeks",13.1%
same,reduction in Chol level,"[9]; 3 mg/kg, 2 weeks",52.0%
same,reduction in LDL-C level,"[9]; 3 mg/kg, 2 weeks",84.0%
same,fat content reduction,"[9]; 3 mg/kg, 8 weeks",26.15%
same,increase in the percentage of lean mass,"[9]; 3 mg/kg, 8 weeks",21.94%
same,reduction in Chol level,"[9]; 3 mg/kg, 10 weeks",53.9%
same,reduction in LDL-C level,"[9]; 3 mg/kg, 10 weeks",79.7%
same,body weight reduction vs HFD control group,"[9]; 10 mg/kg PO once daily, 10 weeks",15.8%
same,reduction in Chol level,"[9]; 10 mg/kg, 2 weeks",64.5%
same,reduction in LDL-C level,"[9]; 10 mg/kg, 2 weeks",85.8%
same,fat content reduction,"[9]; 10 mg/kg, 8 weeks",44.35%
same,increase in the percentage of lean mass,"[9]; 10 mg/kg, 8 weeks",37.91%
same,reduction in Chol level,"[9]; 10 mg/kg, 10 weeks",69.2%
same,reduction in LDL-C level,"[9]; 10 mg/kg, 10 weeks",88.2%
same,body length,"[9]; 0.1-10 mg/kg, 8 weeks",not affected
same,bone density,"[9]; 0.1-10 mg/kg, 8 weeks",not affected
same,cholesterol content in liver homogenates,[9]; 2 and 10 weeks,did not exert a notable influence
same,Ballooning score,"[9]; 0.1 mg/kg, 8 weeks",1.6 ± 0.5
same,Fibrosis Score,"[9]; 0.1 mg/kg, 8 weeks",0.6 ± 0.5
same,Lobular inflammation score,"[9]; 0.1 mg/kg, 8 weeks",1.0 ± 0.0
same,NAFLD activity score,"[9]; 0.1 mg/kg, 8 weeks",5.0 ± 0.9
same,Steatosis score,"[9]; 0.1 mg/kg, 8 weeks",2.4 ± 1.1
same,Ballooning score,"[9]; 0.3 mg/kg, 8 weeks",1.4 ± 0.5
same,Fibrosis Score,"[9]; 0.3 mg/kg, 8 weeks",0.4 ± 0.5
same,Lobular inflammation score,"[9]; 0.3 mg/kg, 8 weeks",1.3 ± 0.5
same,NAFLD activity score,"[9]; 0.3 mg/kg, 8 weeks",4.6 ± 1.2
same,Steatosis score,"[9]; 0.3 mg/kg, 8 weeks",2.0 ± 1.4
same,Ballooning score,"[9]; 1 mg/kg, 8 weeks",1.8 ± 0.5
same,Fibrosis Score,"[9]; 1 mg/kg, 8 weeks",0.4 ± 0.5
same,Lobular inflammation score,"[9]; 1 mg/kg, 8 weeks",1.1 ± 0.4
same,NAFLD activity score,"[9]; 1 mg/kg, 8 weeks",4.4 ± 1.1
same,Steatosis score,"[9]; 1 mg/kg, 8 weeks",1.5 ± 0.8
same,Ballooning score,"[9]; 3 mg/kg, 8 weeks",1.1 ± 1.0
same,Fibrosis Score,"[9]; 3 mg/kg, 8 weeks",0.4 ± 0.5
same,Lobular inflammation score,"[9]; 3 mg/kg, 8 weeks",1.1 ± 0.4
same,NAFLD activity score,"[9]; 3 mg/kg, 8 weeks",3.4 ± 2.1
same,Steatosis score,"[9]; 3 mg/kg, 8 weeks",1.1 ± 1.0
same,Ballooning score,"[9]; 10 mg/kg, 8 weeks",1.0 ± 0.9
same,Fibrosis Score,"[9]; 10 mg/kg, 8 weeks",0.3 ± 0.5
same,Lobular inflammation score,"[9]; 10 mg/kg, 8 weeks",1.0 ± 0.0
same,NAFLD activity score,"[9]; 10 mg/kg, 8 weeks",3.2 ± 1.3
same,Steatosis score,"[9]; 10 mg/kg, 8 weeks",1.2 ± 0.8
same,liver weight,"[9]; all dose groups (0.1-10 mg/kg), 10 weeks",significantly decreased
same,effect on heart weight,"[9]; various doses (0.1-10 mg/kg), 10 weeks",not significant
same,half-life at 2 μM,[10],5.93 h
same,half-life at 2 μM,[11],> 6.21 h
same,plasma stability,[12],stable
